PMC11477298, “Small Molecules Inducing Autophagic Degradation of Expanded Polyglutamine Protein through Interaction with Both Mutant ATXN3 and LC3” (International Journal of Molecular Sciences, 2024)

Key:
Format in all cases: cell-based, human
[1] = MTT compound cytotoxicity assay; details: human, ATXN3-Q75-GFP SH-SY5Y cells, 0.1–100 μM compound, viability analyzed the next day, n = 3
Description: For the compound cytotoxicity assay, ATXN3-Q75-GFP SY5Y cells (2 × 10^4) were plated into 96-well dishes, grown for 20 h, and treated with 0.1–100 μM test compounds. After 1 day, 3-(4,5-dimethylthiazol-2-yl)-2,5-diphenyltetrazolium bromide (MTT, 5 mg/mL) (Sigma-Aldrich, St. Louis, MO, USA) was added to the cells and incubated for 3 h at 37 °C. Lysis buffer (10% Triton X-100, 0.1 N HCl, 18% isopropanol) was then added to dissolve the insoluble formazan crystals. The absorbance of the purple-colored solution was measured at optical density (OD) 570 nm by using a FLx800 fluorescence microplate spectrophotometer (Bio-Tek, Winooski, VT, USA). The half-maximal inhibitory concentration (IC50) was calculated through the construction of a dose–response curve.

[2] = test system: ATXN3-Q75-GFP SH-SY5Y cells; assay: Western blot of LC3-II:LC3-I ratio; details: uninduced = 100%, untreated induced 76%, range over trehalose and the four compounds
Description: For the immunoblotting analysis, ATXN3-Q75-GFP SH-SY5Y cells were seeded in 6-well plates (3 × 10^5/well) and treated with retinoic acid, test compounds, and doxycycline, as described. On day 8, cells were collected and lysed in buffer (50 mM Tris-HCl pH 8.0, 150 mM NaCl, 2 mM EDTA pH 8.0, 0.1% SDS, 0.5% sodium deoxycholate, 1% NP-40) containing the protease inhibitor cocktail (Sigma-Aldrich). After sonication, the lysates were centrifuged (12,000× g for 10 min at 4 °C) and protein concentrations determined (Bradford protein assay; Bio-Rad, Hercules, CA, USA). Aliquots of protein (20 µg) were separated by electrophoresis using 12% SDS-polyacrylamide gel followed by transfer to a polyvinylidene fluoride membrane. After being blocked with 5% skim milk at 4 °C overnight, the membrane was stained with LC3 (1:1000; Medical & Biological Laboratories Co. #PM036, Tokyo, Japan) or GAPDH (glyceraldehyde 3-phosphate dehydrogenase) (1:1000, MDBio #30000002, Taipei, Taiwan) primary antibody at 4 °C overnight. The immune complexes were detected using HRP-conjugated goat anti-rabbit IgG antibody and chemiluminescent substrate, as described.

[3] = test system: ATXN3-Q75-GFP SH-SY5Y cells; assay: High-content neurite outgrowth assay; details: for Neurite branch: untreated 1.16; for Neurite length: untreated 23.2 µm
Description: (§1) ATXN3-Q75-GFP SH-SY5Y cells (5 × 10^4/well) were plated onto 24-well plates, with retinoic acid addition (10 µM; Sigma-Aldrich) on day 1 to initiate neuronal differentiation. On day 2, the cells were pretreated with disaccharide trehalose (10 mM, as a positive control) or the studied compounds (10 μM) for 8 h, followed by the addition of doxycycline (5 μg/mL, Sigma-Aldrich) to induce ATXN3-Q75-GFP expression. The cells were kept in the medium containing retinoic acid, the test compound, and doxycycline for 6 days, with the culture medium changed on day 5. ATXN3-Q75 aggregation and neurite outgrowth assays were performed on day 8 using a high-content imaging system (ImageXpress Micro Confocal; Molecular Devices).
For the aggregation assay, cells were stained with Hoechst 33342 (0.1 µg/mL; Sigma-Aldrich) at 37 °C for 30 min. Images of the cells were automatically obtained at excitation/emission wavelengths of 482/536 nm (FITC [fluorescein isothiocyanate] filter) for enhanced GFP and 377/447 nm (DAPI [4′,6-diamidino-2-phenylindole] filter) for nucleus counting. ATXN3-Q75 aggregation was determined by Transfluor technology based on GFP fluorescence intensity. For the neurite outgrowth assay, cells were fixed with 4% paraformaldehyde for 30 min, permeabilized with 0.1% Triton X-100 for 10 min, and blocked by non-specific binding with 3% bovine serum albumin for 20 min. The primary TUBB3 (neuronal class III β-tubulin) antibody (1:1000; BioLegend #802001, San Diego, CA, USA) was used to stain cells at 4 °C overnight, followed by Alexa Fluor 555-donkey anti-rabbit IgG secondary antibody (1:1000; Invitrogen #A-31572) staining for 2 h at room temperature. Nuclei were detected using DAPI (0.1 μg/mL; Sigma-Aldrich). Cell images were obtained at excitation/emission wavelengths of 531/593 nm (TRITC [tetramethylrhodamine] filter) for stained neurites and 377/447 nm (DAPI filter) for nuclei. To quantify neurite outgrowth, microscopic images were segmented with multi-colored masks to assign each outgrowth to a cell body for quantification. Neurite total length (μm) and numbers of process (primary neurites originating from neuronal cell body) and branch (secondary neurites extended from primary neurites) were analyzed (Neurite Outgrowth Application Module; Molecular Devices). In general, […] in each biological replicate were analyzed.

[4] = test system: ATXN3-Q75-GFP SH-SY5Y cells; assay: Confocal microscopy of LC3 puncta, ATXN3-Q75 aggregates and P62 colocalization; details: range over trehalose and the four compounds; for Colocalization coefficient of ATXN3-Q75-GFP with LC3 puncta: untreated 0.014; for Colocalization coefficient of LC3 with P62: untreated 0.21; for LC3 puncta per cell: untreated induced 2.7
Description: ATXN3-Q75-GFP SY5Y cells were seeded onto 12-well plates (1 × 10^5/well) containing poly-L-lysine-coated coverslip on day 1; treated with retinoic acid, test compounds, and doxycycline on day 2; and fixed, permeabilized, and blocked on day 8, as described. The primary anti-LC3 antibody (1:1000; Cell Signaling #83506, Danvers, MA, USA) or anti-P62 antibody (1:1500; Cell Signaling #5114) was used to stain cells at 4 °C overnight. After washing with PBS containing 0.1% Tween 20 (PBST), cells were incubated for 2 h at room temperature with Cy5-conjugated (1:1000, Jackson ImmunoResearch 715-175-150) or Alexa Fluor 555-conjugated (1:500; Invitrogen #A-31572) secondary antibody, and washed three times with PBST. Nuclei were detected using DAPI (0.1 μg/mL; Sigma-Aldrich). The stained cells on coverslips were mounted onto microscope slides with Vectashield antifade mounting medium (Vector Laboratories, Newark, CA, USA) and examined using a Zeiss LSM880 confocal microscope (Carl Zeiss AG, Oberkochen, Baden-Württemberg, Germany). Cell images were acquired at excitation/emission wavelengths of 649/666 nm, 482/536 nm, 555/582 nm, and 385/461 nm for stained LC3 puncta, aggregates, P62, and nuclei, respectively. For colocalization, 300 cells from three independent experiments were analyzed and quantified for the proportion of pixels that LC3 (red) colocalized with P62 (yellow) using Mander’s overlap coefficient (MOC) in ZEN software version 2.1 (Carl Zeiss AG).

[5] = test system: ATXN3-Q75-GFP SH-SY5Y cells; assay: High-content analysis of ATXN3-Q75 aggregation in cells; details: trehalose 10 mM; untreated induced cells 8.2%; day 8
Description: as §1, with “ATXN3-Q75 aggregation and neurite outgrowth assays were performed on day 8 using a high-content imaging system (ImageXpress Micro Confocal; Molecular Devices).” left out
For the aggregation assay, cells were stained with Hoechst 33342 (0.1 µg/mL; Sigma-Aldrich) at 37 °C for 30 min. […] ATXN3-Q75 aggregation was determined by Transfluor technology based on GFP fluorescence intensity. […] Nuclei were detected using DAPI (0.1 μg/mL; Sigma-Aldrich). […] To quantify neurite outgrowth, microscopic images were segmented with multi-colored masks to assign each outgrowth to a cell body for quantification. Neurite total length (μm) and numbers of process (primary neurites originating from neuronal cell body) and branch (secondary neurites extended from primary neurites) were analyzed (Neurite Outgrowth Application Module; Molecular Devices). In general, 104 cells in each biological replicate were analyzed.

[6] = test system: ATXN3-Q75-GFP SH-SY5Y cells; assay: Filter trap assay of cell lysates; details: trehalose 10 mM; without compound = 100%
Description: The filter retardation assay was performed to quantify ATXN3-Q75 protein aggregates. The purified Trx-His-ATXN3-Q75 protein was incubated with test compounds (100 µM) at 37 °C for 2 days as described. In addition, proteins from compound-treated ATXN3-Q75-GFP SH-SY5Y cells were prepared (as described in Western blotting). Proteins (0.5 µg of biochemical reaction or 20 µg of cellular lysates) were diluted in 2% SDS in phosphate-buffered saline (PBS) and filtered through a cellulose acetate membrane (0.45-μm pore size; Sterlitech, Auburn, WA, USA) pre-equilibrated in 2% SDS in PBS on a dot-blot filtration apparatus (Bio-Rad Laboratories, Hercules, CA, USA). After washing with 2% SDS buffer, the membrane was blocked in PBS containing 5% skim milk at 4 °C overnight. Insoluble ATXN3-Q75 was probed with an anti-His tag (1:2000; OriGene #TA100013, Rockville, MD, USA) or anti-ATXN3 (1:1000; Invitrogen #PA5-26251) antibody. The immune complex on the filter was detected using horseradish peroxidase (HRP)-conjugated goat anti-mouse (#GTX213111-01) or goat anti-rabbit (#GTX213110-01) immunoglobulin G (IgG) antibody (1:5000; GeneTex, Irvine, CA, USA) and a chemiluminescent HRP substrate (Millipore, Billerica, MA, USA). The chemiluminescent signals were captured with an ImageQuant LAS 4000 (GE Healthcare, Chicago, IL, USA) and quantified (Multi Gauge V3.0 software, Fujifilm, Tokyo, Japan). […]

[7] = compound 10 µM, range over the four named compounds

Structure (SMILES): O=C(/C=C/c1ccco1)c1c(O)c2ccccc2oc1=O [LM-022]
- IC50 at 1 day [1]: 102 µM

Structure (SMILES): CC(=O)/C(=C\c1ccccc1[N+](=O)[O-])Cc1c(-c2ccccc2)[nH]c2ccccc12 [NC009-3]
- IC50 at 1 day [1]: > 100 µM

Structure (SMILES): CCc1cccc2c(C/C(=C/c3ccccc3[N+](=O)[O-])C(C)=O)c[nH]c12 [NC009-6]
- Relative LC3-II:LC3-I ratio ([2]; compound 10 μM): 102–124%
- Neurite branch [3, 7]: 1.34–1.37
- Neurite process ([3]; compound 10 µM, untreated 2.41, range over the four named compounds): 2.55–2.57
- Neurite length [3, 7]: 26.1–26.9 µm
- IC50 at 1 day [1]: 176 µM
- Colocalization coefficient of ATXN3-Q75-GFP with LC3 puncta ([4]; compound 10 μM): 0.025–0.030
- Colocalization coefficient of LC3 with P62 ([4]; compound 10 μM): 0.26–0.29
- LC3 puncta per cell ([4]; compound 10 μM): 4.6–6.7

Structure (SMILES): OC[C@H]1O[C@H](O[C@H]2O[C@H](CO)[C@@H](O)[C@H](O)[C@H]2O)[C@H](O)[C@@H](O)[C@@H]1O [trehalose, reference compound]
- Relative LC3-II:LC3-I ratio ([2]; trehalose 10 mM): 102–124%
- Percentage of aggregated cells [5]: 7.4%
- Neurite branch ([3]; trehalose 10 mM): 1.31
- Neurite length ([3]; trehalose 10 mM): 25.5 µm
- Insoluble aggregated proteins in cell lysates (filter trap) [6]: 45%
- Colocalization coefficient of ATXN3-Q75-GFP with LC3 puncta ([4]; trehalose 10 mM): 0.025–0.030
- Colocalization coefficient of LC3 with P62 ([4]; trehalose 10 mM): 0.26–0.29
- LC3 puncta per cell ([4]; trehalose 10 mM): 4.6–6.7
